Measurements as given in EP4737449A1 (Changchun Genescience Pharmaceutical Co., Ltd., priority 2023, dated 2025).
Like-named read-outs stand apart in the source and are kept apart here.

What was measured:
PXR = molecular target: T1, PXR (Homo sapiens, UniProt O75469); assay: PXR activity test in DPX2 cells (luciferase); type: cell-based; settings: for Activation fold: DPX2 cells, 24 h; for Percentage relative to positive control: positive control rifampicin
T1 construct: expressed in transfected cells; host or cells: DPX2 cells
T1 sequence (O75469 1-434): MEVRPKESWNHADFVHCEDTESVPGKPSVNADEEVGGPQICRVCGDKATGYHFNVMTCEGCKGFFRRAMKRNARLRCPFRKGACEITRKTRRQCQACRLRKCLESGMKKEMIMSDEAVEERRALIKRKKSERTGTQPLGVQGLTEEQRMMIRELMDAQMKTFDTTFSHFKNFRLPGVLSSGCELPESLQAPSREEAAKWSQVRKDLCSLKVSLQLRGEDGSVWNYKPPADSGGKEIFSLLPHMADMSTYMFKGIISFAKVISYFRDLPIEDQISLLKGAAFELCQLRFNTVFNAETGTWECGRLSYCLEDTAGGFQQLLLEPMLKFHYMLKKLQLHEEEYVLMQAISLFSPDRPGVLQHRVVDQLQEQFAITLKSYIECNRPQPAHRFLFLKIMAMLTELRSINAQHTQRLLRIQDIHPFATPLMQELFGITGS
Protocol: The cells were digested when they covered 80-90% of the bottom of the flask. • 3) The surface of the T-75 cultured cells was washed with 10 mL of PBS, PBS was removed by pipetting, 3-5 mL of trypsin was added, the cells were digested at 37°C for 5 min or until the cells were completely digested and in a suspended state, and excessive culture medium containing fetal bovine serum was added to terminate trypsin digestion. • 4) The cell suspension was transferred to a conical-bottom centrifuge tube and centrifuged at 150 g for 5 min at room temperature. The supernatant was carefully removed by pipetting and the cells were re-suspended in treatment medium to have a concentration of 3.2×10^5 cells/mL (incubation time 24 h, plate seeding density […]). In a 384-well cell culture plate, 25 μL of cell suspension was added to each well. The cell plate was placed in an incubator at 95% humidity, 37°C, and 5% CO2 for 24 h. […] The cell plates were placed in an incubator and further incubated for 24 h. • 3) Before starting experiments with the substrate, cell morphology and monolayer integrity were checked to ensure the monolayer is of acceptable quality for studies. […] GF-AFC substrate (10 μL) was added to Assay Buffer (10 ml) to form 2X reagent, which was then diluted into 1X reagent with 10 mL of PBS. ONE-Glo Luciferase substrate was added to ONE-Glo Luciferase Assay Buffer. • 3) The culture plate was taken out of the incubator, the culture medium was discarded, 1X CellTiter-Fluor^TM reagent was poured into the sample loading slot, 25 μL of reagent was added to each well of the culture plate using a pipetting workstation, and then the plate was placed in the incubator for incubation for 30 min. • 4) The cell culture plate was taken out from the incubator, cooled slightly to room temperature, and the fluorescence value was measured by automatic quantitative microplate reader. […] The activation fold of mRNA is calculated using the following formula: Fold activation = (RLUtest/RFUtest)/(RLUvehicle/RFUvehicle) [formula] 2) The percentage of cell viability of the compound is calculated as follows: Cell Viability % = (RFUtest/RFUvehicle) × 100 [formula] 3) The percentage relative to the positive control is calculated according to the following formula: Percent of positive control(%) = (Foldactivationtest/[…]:?}

NUGC-3 cells = assay: NUGC-3 cell proliferation assay (CTG, 7 days); type: cell-based, human; settings: Homo sapiens, NUGC-3, 168 h
Summary of the method: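 Cells (200/well) in 1640 medium with 10% serum exposed to 10-point, 3-fold DMSO dilutions (duplicates) for 7 days at 37°C. Viability read by CellTiter-Glo luminescence; % inhibition normalized to DMSO and blank, IC50 from variable-slope nonlinear fit.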

[1] = Concentration 1 (µM per method)
[2] = Concentration 10 (µM per method)
[3] = NUGC-3 cell proliferation, 7 days, CTG, read-out: IC50

CCn1ncc(C(=O)NCC#Cc2nn3c(N[C@@H]4CCN(C)C[C@@H]4F)cccc3c2CC(F)(F)F)c1N [Compound 261, 5-amino-1-ethyl-N-[3-(7-{[(3S,4R)-3-fluoro-1-methylpiperidin-4-yl]amino}-3-(2,2,2-trifluoroethyl)pyrazolo[1,5-a]pyridin-2-yl)prop-2-yn-1-yl]-1H-pyrazole-4-carboxamide]
Activation fold (PXR; [1]): 0.89 | Percentage relative to positive control (PXR; [1]): 4.48% | Activation fold (PXR; [2]): 1.43 | Percentage relative to positive control (PXR; [2]): 7.20% | IC50 (NUGC-3 cells): 172 nM

CN1CC[C@@H](Nc2cccc3c(CC(F)(F)F)c(C#CCNC(=O)c4cnn(C(C)(C)C)c4N)nn23)[C@@H](F)C1 [Compound 047]
Activation fold (PXR; [1]): 1.12 | Percentage relative to positive control (PXR; [1]): 5.67% | Activation fold (PXR; [2]): 2.66 | Percentage relative to positive control (PXR; [2]): 13.47% | IC50 (NUGC-3 cells): 129 nM

CN1CC[C@@H](Nc2cccc3c(CC(F)(F)F)c(C#CCNC(=O)c4cnn(C(C)(C)C)c4)nn23)[C@@H](F)C1 [Compound 001, 1-tert-butyl-N-[3-(7-{[(3S,4R)-3-fluoro-1-methylpiperidin-4-yl]amino}-3-(2,2,2-trifluoroethyl)pyrazolo[1,5-a]pyridin-2-yl)prop-2-yn-1-yl]-1H-pyrazole-4-carboxamide]
Activation fold (PXR; [1]): 1.41 | Percentage relative to positive control (PXR; [1]): 8.07% | Activation fold (PXR; [2]): 3.05 | Percentage relative to positive control (PXR; [2]): 17.50% | IC50 (NUGC-3 cells; [3]): 387 nM

CNC(=O)c1ccc(NCC#Cc2cc3c(N[C@@H]4CCN(C)C[C@@H]4F)cccc3n2CC(F)(F)F)c(OC)c1 [Control compound, reference compound]
Activation fold (PXR; [1]): 1.40 | Percentage relative to positive control (PXR; [1]): 8.61% | Activation fold (PXR; [2]): 8.58 | Percentage relative to positive control (PXR; [2]): 52.82% | IC50 (NUGC-3 cells; [3]): 384 nM
